The values that follow come from PMC11574108, “4-Furanylvinylquinoline derivative as a new scaffold for the design of oxidative stress initiator and glucose transporter inhibitor drugs” (Scientific Reports, 2024).

One assay deals with U-251 spheroids. Description: 3D spheroid cell viability assay. The assay is classed as cell-based. The note with it: Homo sapiens, 3D spheroids, CellTiter-Glo 3D, 72-h treatment, read-out: IC50 U-251 (3D model). The protocol:
(§1) The HCT 116 cell lines, AsPC-1, PANC-1 (5,000), and U-251 cells (8,000) in 100 µL of medium were seeded in 96-well ULA Corning spheroid microplates (Sigma-Aldrich) and incubated for 72 h at 37 °C to form spheroids. The medium from each well was then gently removed and freshly prepared solutions of 13 were added. The treated spheroids were incubated for the next 72-h. Afterward, cell viability assays were performed using CellTiter-Glo 3D Reagent (Promega) according to the manufacturer’s protocol. Briefly, CellTiter-Glo 3D Reagent was added in equal volume to the medium in each well. The plate was vigorously mixed for 5 min and then incubated for 25 min at room temperature. The luminescence was measured using a multiplate reader (Synergy 4, BioTek). The experiment for each sample was performed at least three times. The results from the assay are presented as IC50 values, which were calculated using GraphPad Prism v.8.0 (USA).
(§2) To confirm the cytotoxicity ranking, the viability of the cells was also estimated on a 3D spheroid model, which better represented a solid tumour. […] The cell lines that represented pancreatic cancer were less responsive to derivative 13, which was similar to the 2D model. […] However, the activity of derivative 13 was confirmed on the 3D model that reflected a real tumour, which is undoubtedly a positive result and a reason for further, more in-depth studies to clarify the mechanism of action of the 4-furanylvinylquinoline derivative 13.
(Cellular ATP, detected with luciferase, serves as a proxy for viable cell number.)

The subject of a further assay is HCT 116 p53-/- spheroids. Description: 3D spheroid cell viability assay. The format is cell-based. Particulars: Homo sapiens, HCT-116, 72 h, 3D spheroids, CellTiter-Glo 3D, 72-h treatment; read-out: IC50 HCT 116 p53-/- (3D model). The protocol:
as §1, §2

In the next assay the test system is PANC-1 spheroids. Put plainly: 3D spheroid cell viability assay. Particulars: Homo sapiens, 3D spheroids, CellTiter-Glo 3D, 72-h treatment, read-out: IC50 PANC-1 (3D model). The format is cell-based. As to the method: as §1, §2
The next assay concerns AsPC-1 spheroids. Put plainly: 3D spheroid cell viability assay. The assay is classed as cell-based. Particulars: Homo sapiens, ASPC1; 3D spheroids, CellTiter-Glo 3D, 72-h treatment; read-out: IC50 AsPC-1 (3D model). The protocol: as §1, §2
In a further assay the test system is PANC-1. Put plainly: Monolayer antiproliferative MTS assay. Particulars: 2D monolayer; for IC50: MTS, 72-h incubation. The assay is classed as cell-based, human. The protocol: (§3) The cells were seeded in 96-well plates (Nunc) with 5,000 or 4,000 cells per well for the cancer cells and NHDF, respectively, and incubated under standard conditions at 37 °C overnight. The culture media were then changed for freshly prepared solutions of the tested compounds in various concentrations. After 72-h incubation the antiproliferative assay was carried out as follows: the solutions of the compounds were changed in each well to 100 µL DMEM without phenol red and 20 µL of CellTiter 96 AQueous One Solution-MTS (Promega). The plates were incubated for 1 h at 37 °C, and the absorbance was then measured at 490 nm using a multi-plate reader (Synergy 4, BioTek). The experiment for each sample was repeated at least three times. The results are presented as the half-maximal inhibitory concentration (IC50) values, which were estimated in comparison to untreated cells (control) and calculated using GraphPad Prism v.8.0 (USA).
(§4) However, the antiproliferative activity of derivative 13 with furan a ring was surprising. […] For this purpose, we selected two pancreatic cancer cell lines: AsPC-1, which is characterised by a deletion of the p53 protein[20] and PANC-1, which carries an R273H mutation. This mutation also occurred in the glioblastoma U-251 cell line[22],[23]. An additional non-adherent line that carries the TP53 mutation that results in the absence of p53 is the K562 leukemic cell line[24]. […] Moreover, 13 was selective toward […], as indicated by its SI values (3.35–9.41). Among all of the tested cell lines, the highest activity of the compound was found against the HCT 116 cells with the wild-type p53 protein (0.069 µM). […] The p53 protein also interacts with the metabolic pathways that are associated with glucose transport[25] as well as small molecules. In light of the above-mentioned facts, we also determined the cytotoxicity of the GLUT inhibitor BAY-876, which is based on a quinoline scaffold. […] Furthermore, BAY-876 was also toxic to normal cells.

A further assay deals with AsPC-1. Description: Monolayer antiproliferative MTS assay. The note with it: 2D monolayer; for IC50: MTS, 72-h incubation. The assay is classed as cell-based, human. The protocol:
as §3, §4
In general terms: Tetrazolium assays rely on reduction of a dye to a coloured formazan, in cell work by metabolically active cells.

Another assay concerns U-251. Put plainly: Cell cycle assay (flow cytometry). The format is cell-based, human. Particulars: 2xIC50, 24-h treatment; control 20.44%. As to the method:
(§5) The cells were seeded in 35 mm Petri dishes, 200,000 cells per dish, and incubated overnight under standard conditions at 37 °C. […] After a 24-h incubation, the experiment was carried out using a Muse™ Cell Cycle Kit (Millipore) according to the available procedure. Briefly, the cells were detached and collected in Eppendorf tubes. The samples were then washed with cold phosphate-buffered saline (PBS), centrifuged at 300 g (5 min), and fixed in ice-cold 70% ethanol. The cells were stored at -20 °C overnight. The next day, the samples were sequentially washed with cold PBS, centrifuged resuspended in 200 µL of Muse™ Cell Cycle Reagent, and incubated in the dark for 30 min at room temperature. The percentage of cells in specified cell cycle phases was estimated using a Muse™ Cell Analyzer (Millipore). The experiments were carried out three times.
(§6) When analysing the antiproliferative activity of the tested compounds, we decided to determine the molecular mechanism of action of the most promising derivative 13 in three cell lines with different statuses of p53, for which the derivative has the highest activity. In order to achieve this goal, we started by studying the changes in the cell cycle in order to determine why proliferation stops. To evaluate the effect of derivative 13 on the cell cycle progression, we used flow cytometry. After a 24-h treatment, we observed a significant inhibition in the G2/M phase in both HCT 116 cell lines (Fig. 4A).
(A flow cytometer gives signals particle by particle.)

A further assay has as its system HCT 116 p53-/-. Description: Cell cycle assay (flow cytometry). The format is cell-based, human. Particulars: 2xIC50, 24-h treatment; control 34.35%. As to the method:
as §5, §6

The next assay concerns HCT 116 p53+/+. Put plainly: Cell cycle assay (flow cytometry). Particulars: 2xIC50, 24-h treatment; control 30.81%. The format is cell-based, human. As to the method:
as §5, §6

`O=[N+]([O-])c1ccc(/C=C/c2ccnc3ccccc23)o1` [Compound 13]: the IC50 is 0.34 ± 0.07 µM in the assay on U-251 spheroids; roughly 1 µM with HCT 116 p53-/- spheroids; 2.16 ± 0.37 µM with PANC-1 spheroids; 4.18 ± 1 µM with AsPC-1 spheroids; 0.193 ± 0.008 µM in the assay on PANC-1; no more than 0.2 µM in the assay with PANC-1 (Homo sapiens, PANC-1, 72 h). In addition, the IC50 in the assay with AsPC-1 is 0.123 ± 0.007 µM; in the assay with AsPC-1 (Homo sapiens, ASPC1, 72 h) it was no more than 0.2 µM. In addition, in the assay on PANC-1 (relative to NHDF), the “SI (selectivity index) PANC-1” value was determined as 3.36. Further, in the assay with AsPC-1 (relative to NHDF), the “SI (selectivity index) AsPC-1” value was 5.28. For the same compound, the “percentage of cells in S phase” value in the assay on U-251 turned out to be 35.59%. Moreover, the entries for the “population of cells in G2/M phase” value in the assay with HCT 116 p53-/- and in the assay with HCT 116 p53+/+ were 44.95% and 49.78%, respectively.
